Source: ChEMBL document CHEMBL1156760, “Synthesis and biological evaluation of new nanomolar competitive inhibitors of Helicobacter pylori type II dehydroquinase. Structural details of the role of the aromatic moieties with essential residues” (J Med Chem, 2010)

Molecular target: T1, 3-dehydroquinate dehydratase (Helicobacter pylori (strain ATCC 700392 / 26695) (Campylobacterpylori), UniProt Q48255)
T1 sequence (Q48255 whole entry): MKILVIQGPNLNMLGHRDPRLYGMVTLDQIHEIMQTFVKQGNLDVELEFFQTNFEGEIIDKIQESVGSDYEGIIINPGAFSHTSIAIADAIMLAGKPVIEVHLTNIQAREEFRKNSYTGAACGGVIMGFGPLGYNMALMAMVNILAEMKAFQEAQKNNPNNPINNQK
Assay: Inhibition of Helicobacter pylori DHQ2 by UV spectroscopy

Ki: 132 nM
Compound: O=C(O)[C@]1(O)C=C(OCc2cc3ccccc3s2)[C@@H](O)[C@H](O)C1
